The record followed here is US12448383B2, “Compounds and methods for treatment of viral infections” (priority 2022, dated 2025).

Read-outs that look alike come from different tables or passages of the source.

Data set [1] can be described thus: CC50 MT4 cytotoxicity (Cell-Titer Glo). In kind it is cell-based. Conditions: human. In a few lines:
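Uninfected MT-4 and HEp-2 cells cultured 4-5 days at 37° C with 3-fold serially diluted compound (15 nM to 100,000 nM). Viability read by Cell-Titer Glo luminescence; untreated and 2 μM puromycin wells set 100% and 0%. CC50 from non-linear regression as concentration reducing viability by 50%.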

Data set [2] is described as follows: Thermodynamic solubility in pH7 buffered solution. As to conditions: 50 mM phosphate buffer pH7, 150 mM NaCl, ambient temperature, 24 hours. The gist of the method: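 Solid shaken 24 h at ambient temperature in 50 mM phosphate buffer pH7 with 150 mM NaCl. Supernatant diluted in 30:70 acetonitrile:water and quantified by UPLC-UV.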
Data set [3] has as its system Respiratory syncytial virus recombinant with luciferase (RSV-Luc5) in Normal Human Bronchial Epithelial (NHBE) cells. The data set can be described thus: microbe, parasite or virus in culture. The class given is cell-based.
The nature of data set [4]: Stability in pH7 buffered solution. The class given is physicochemical. As to conditions: pH7 phosphate buffer, 40° C., Table N2. In a few lines: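 Compounds diluted from 1 mg/mL acetonitrile stock to 50 μg/mL in 50 mM phosphate buffer with 150 mM NaCl at pH2 or pH7, held at 40° C. for 24 hrs. UPLC sampling at 0, 3, 6, 9, 12 hrs, plus 24 hrs from oven-stored duplicate; reported as % area normalized of compound peak.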

A short description of data set [5]: GI S9 stability - no PMSF. In kind it is in vitro ADME. Conditions: pH 7.4; human intestinal S9, PMSF-free; read-out: GIS9-HUMAN-NoPMSF T1/2. The gist of the method:
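Compounds were incubated at 2 μM with PMSF-free intestinal S9 (1 mg/mL protein) in 100 mM PBS, pH 7.4, sampling at 6 time points over 120 min. Parent disappearance and formation of the nucleoside metabolite Reference Compound A were quantified by LC-MS (Q-Exactive) using analyte/internal standard peak area ratios.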

Data set [6] has as its system SARS Coronavirus 2 recombinant with NanoLuc (SARS-CoV2-NLuc) in A549-hACE2 cells. The data set is described as follows: organism not typed. The class given is cell-based.

For orientation: CC50 means the concentration that lowers cell viability or growth by half. Read a high CC50 as lower toxicity to the cells. By EC50 is commonly meant the concentration needed to bring the measured effect to its halfway point. Regarding `CCOC(=O)OC[C@H]1O[C@@](C#N)(c2ccc3c(N)ncnn23)[C@H](OC(C)=O)[C@@H]1OC(C)=O` [Compound 129, (2R,3R,4R,5R)-2-(4-aminopyrrolo[2,1-f][1,2,4]triazin-7-yl)-2-cyano-5-(((ethoxycarbonyl)oxy)methyl)tetrahydrofuran-3,4-diyl diacetate], in data set [1], the CC50 was > 50 µM. Besides, in data set [2], the “Sol pH 7” value is on record as 0.72. The EC50 in data set [3] (72 h, read-out: RSV NHBE EC50) is 0.673 µM; in data set [6] (48 h, read-out: SARS-CoV2 EC50) it was 5.83 µM. The “pH 7 Stability 24 h % AN” value in data set [4] is 78 % AN. In addition, the half-life at 2 µM in data set [5] was 0.623 min.
For `CC12CCC(C1)C(C)(C)C2OC(=O)OC[C@H]1O[C@@](C#N)(c2ccc3c(N)ncnn23)[C@H](O)[C@@H]1O` (mixture of isomers) [Compound 48, ((2R,3S,4R,5R)-5-(4-aminopyrrolo[2,1-f][1,2,4]triazin-7-yl)-5-cyano-3,4-dihydroxytetrahydrofuran-2-yl)methyl (1,3,3-trimethylbicyclo[2.2.1]heptan-2-yl) carbonate], the CC50 in data set [1] stood at 25.5 µM. Moreover, the “Sol pH 7” value in data set [2] is listed as 0.19. The EC50 in data set [3] (72 h, read-out: RSV NHBE EC50) was 0.167 µM; in data set [6] (48 h, read-out: SARS-CoV2 EC50), 14.2 µM. For the same compound, the “pH 7 Stability 24 h % AN” value in data set [4] is listed as 99 % AN. Also, the half-life at 2 µM in data set [5] is 10.1 min.
In data set [1], `CC(C)C(=O)O[C@H]1[C@@H](OC(=O)C(C)C)[C@](C#N)(c2ccc3c(N)ncnn23)O[C@@H]1COC(=O)OC(C)(C)C` [Compound 58, (2R,3R,4R,5R)-2-(4-aminopyrrolo[2,1-f][1,2,4]triazin-7-yl)-5-(((tert-butoxycarbonyl)oxy)methyl)-2-cyanotetrahydrofuran-3,4-diyl bis(2-methylpropanoate)] came in with a CC50 of 27.1 µM. Also, the “Sol pH 7” value in data set [2] worked out at 0.02. Besides, the EC50 stood at 1.07 µM in data set [3] (72 h, read-out: RSV NHBE EC50) and 2.24 µM in data set [6] (48 h, read-out: SARS-CoV2 EC50). Also, the “pH 7 Stability 24 h % AN” value in data set [4] came out at 7 % AN. Moreover, in data set [5], the half-life at 2 µM was found to be 1.19 min.
In the case of `CC(C)(C)OC(=O)OC[C@H]1O[C@@](C#N)(c2ccc3c(N)ncnn23)[C@H](O)[C@@H]1O` [Compound 46, ((2R,3S,4R,5R)-5-(4-aminopyrrolo[2,1-f][1,2,4]triazin-7-yl)-5-cyano-3,4-dihydroxytetrahydrofuran-2-yl)methyl tert-butyl carbonate], in data set [1], the CC50 is > 50 µM. For the same compound, the “Sol pH 7” value in data set [2] is reported as 0.45. The EC50 in data set [3] (72 h, read-out: RSV NHBE EC50) was determined as 1.18 µM; in data set [6] (48 h, read-out: SARS-CoV2 EC50), 4.3 µM. Moreover, the “pH 7 Stability 24 h % AN” value in data set [4] came to 8 % AN. Besides, the half-life at 2 µM in data set [5] came to 145 min.
As for `CC(C)OC(=O)OC[C@H]1O[C@@](C#N)(c2ccc3c(N)ncnn23)[C@H](O)[C@@H]1O` [Compound 4, [(2R,3S,4R,5R)-5-(4-aminopyrrolo[2,1-f][1,2,4]triazin-7-yl)-5-cyano-3,4-dihydroay-tetrahydrofuran-2-yl]methyl isopropyl carbonate], in data set [1], the CC50 is > 50 µM. In addition, the “Sol pH 7” value in data set [2] came to 1.85. The EC50 was determined as 0.774 µM in data set [3] (72 h, read-out: RSV NHBE EC50) and 2.67 µM in data set [6] (48 h, read-out: SARS-CoV2 EC50). The “pH 7 Stability 24 h % AN” value in data set [4] was 97 % AN. Besides, the half-life at 2 µM in data set [5] came out at 0.903 min.
Consider `CCOC(=O)OC[C@H]1O[C@@](C#N)(c2ccc3c(N)ncnn23)[C@H](O)[C@@H]1O` [Compound 6, ((2R,3S,4R,5R)-5-(4-aminopyrrolo[2,1-f][1,2,4]triazin-7-yl)-5-cyano-3,4-dihydroxytetrahydrofuran-2-yl)methyl ethyl carbonate], for which, in data set [1], the CC50 is > 50 µM. Also, the “Sol pH 7” value in data set [2] is recorded as 3.02. Besides, the EC50 in data set [3] (72 h, read-out: RSV NHBE EC50) stood at 1.01 µM; in data set [6] (48 h, read-out: SARS-CoV2 EC50) it was 4.42 µM. For the same compound, the “pH 7 Stability 24 h % AN” value in data set [4] worked out at 100 % AN. In addition, in data set [5], the half-life at 2 µM amounted to 4.08 min.
For the compound `CC(C)OC(=O)OC[C@H]1O[C@@](C#N)(c2ccc3c(N)ncnn23)[C@H](OC(=O)C(C)C)[C@@H]1OC(=O)C(C)C` [Compound 59, (2R,3R,4R,5R)-2-(4-aminopyrrolo[2,1-f][1,2,4]triazin-7-yl)-2-cyano-5-(((isopropoxycarbonyl)oxy)methyl)tetrahydrofuran-3,4-diyl bis(2-methylpropanoate)], the CC50 in data set [1] is > 50 µM. For the same compound, the “Sol pH 7” value in data set [2] was 0.01. For the same compound, the EC50 in data set [3] (72 h, read-out: RSV NHBE EC50) worked out at 0.811 µM; in data set [6] (48 h, read-out: SARS-CoV2 EC50), 4.16 µM. The “pH 7 Stability 24 h % AN” value in data set [4] is 93 % AN. In data set [5], the half-life at 2 µM is 0.869 min.
In the case of `CC(=O)O[C@H]1[C@@H](OC(C)=O)[C@](C#N)(c2ccc3c(N)ncnn23)O[C@@H]1COC(=O)OC(C)C` [Compound 65, (2R,3R,4R,5R)-2-(4-aminopyrrolo[2,1-f][1,2,4]triazin-7-yl)-2-cyano-5-(((isopropoxycarbonyl)oxy)methyl)tetrahydrofuran-3,4-diyl diacetate], the CC50 in data set [1] was > 50 µM. Further, the “Sol pH 7” value in data set [2] amounted to 0.045. Moreover, the EC50 in data set [3] (72 h, read-out: RSV NHBE EC50) is 0.185 µM; in data set [6] (48 h, read-out: SARS-CoV2 EC50) it was 3.64 µM. The “pH 7 Stability 24 h % AN” value in data set [4] is 80 % AN. For the same compound, the half-life at 2 µM in data set [5] came out at 0.621 min.
`CC1(C)[C@@H]2CC[C@@]1(C)[C@@H](OC(=O)OC[C@H]1O[C@@](C#N)(c3ccc4c(N)ncnn34)[C@H](O)[C@@H]1O)C2` [Compound 51, ((2R,3S,4R,5R)-5-(4-aminopyrrolo[2,1-f][1,2,4]triazin-7-yl)-5-cyano-3,4-dihydroxytetrahydrofuran-2-yl)methyl ((1R,2S,4R)-1,7,7-trimethylbicyclo[2.2.1]heptan-2-yl) carbonate]: the CC50 in data set [1] turned out to be 38.3 µM. Moreover, in data set [2], the “Sol pH 7” value was 0.08. For the same compound, the EC50 in data set [3] (72 h, read-out: RSV NHBE EC50) worked out at 0.727 µM; in data set [6] (48 h, read-out: SARS-CoV2 EC50), 7.83 µM. Besides, the “pH 7 Stability 24 h % AN” value in data set [4] was 97 % AN. For the same compound, the half-life at 2 µM in data set [5] was determined as 11 min.
Regarding `CC(C)(OC(=O)OC[C@H]1O[C@@](C#N)(c2ccc3c(N)ncnn23)[C@H](O)[C@@H]1O)c1ccncc1` [Compound 49, ((2R,3S,4R,5R)-5-(4-aminopyrrolo[2,1-f][1,2,4]triazin-7-yl)-5-cyano-3,4-dihydroxytetrahydrofuran-2-yl)methyl (2-(pyridin-4-yl)propan-2-yl) carbonate], in data set [1], the CC50 is > 50 µM. Moreover, in data set [2], the “Sol pH 7” value was determined as 2.03. Besides, the EC50 was 17.7 µM in data set [3] (72 h, read-out: RSV NHBE EC50) and 14.3 µM in data set [6] (48 h, read-out: SARS-CoV2 EC50). The “pH 7 Stability 24 h % AN” value in data set [4] was 94 % AN. Besides, the half-life at 2 µM in data set [5] stood at 522 min.
Consider `CC(C)OC(=O)Nc1ncnn2c([C@]3(C#N)O[C@H](COC(=O)OC(C)C)[C@@H](O)[C@H]3O)ccc12` [Compound 137, isopropyl (7-((2R,3R,4S,5R)-2-cyano-3,4-dihydroxy-5-(((isopropoxycarbonyl)oxy)methyl)tetrahydrofuran-2-yl)pyrrolo[2, i-f][1,2,4]triazin-4-yl)carbamate], for which the CC50 in data set [1] is > 50 µM. Also, the “Sol pH 7” value in data set [2] was 0.13. In addition, the EC50 in data set [3] (read-out: EC50 RSVFluc-NHBE 384 V2) was 9.52 µM; in data set [6] (A549, read-out: EC50 SARS CoV2 NanoLuc A549 384) it was > 50 µM. Moreover, the “pH 7 Stability 24 h % AN” value in data set [4] was determined as 97 % AN. Besides, in data set [5], the half-life at 2 µM was found to be 8.05 min.
For the compound `COC(=O)OC[C@H]1O[C@@](C#N)(c2ccc3c(N)ncnn23)[C@H](OC(C)=O)[C@@H]1OC(C)=O` [Compound 128, (2R,3R,4R,5R)-2-(4-aminopyrrolo[2,1-f][1,2,4]triazin-7-yl)-2-cyano-5-(((methoxycarbonyl)oxy)methyl)tetrahydrofuran-3,4-diyl diacetate], the CC50 in data set [1] was > 50 µM. The “Sol pH 7” value in data set [2] came to 1.42. Moreover, the EC50 stood at 2.04 µM in data set [3] (72 h, read-out: RSV NHBE EC50) and 7.23 µM in data set [6] (48 h, read-out: SARS-CoV2 EC50). Besides, the “pH 7 Stability 24 h % AN” value in data set [4] came to 78 % AN. Also, the half-life at 2 µM in data set [5] was 0.59 min.
For `CC1(OC(=O)OC[C@H]2O[C@@](C#N)(c3ccc4c(N)ncnn34)[C@H](O)[C@@H]2O)CCCCC1` [Compound 47, ((2R,3S,4R,5R)-5-(4-aminopyrrolo[2,1-f][1,2,4]triazin-7-yl)-5-cyano-3,4-dihydroxytetrahydrofuran-2-yl)methyl (1-methylcyclohexyl) carbonate], in data set [1], the CC50 was > 50 µM. Also, the “Sol pH 7” value in data set [2] was 0.1. The EC50 was found to be 1.48 µM in data set [3] (72 h, read-out: RSV NHBE EC50) and 3.36 µM in data set [6] (48 h, read-out: SARS-CoV2 EC50). The “pH 7 Stability 24 h % AN” value in data set [4] was found to be 3 % AN. The half-life at 2 µM in data set [5] was determined as 151 min.
